Results reported in PubChem BioAssay (NCI).
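Cultured in 96-well plates, cells were exposed to test compound for 48 hours across five concentrations. TGI: total growth inhibition.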

Key:
Assay in all cases: inhibition of tumour cell growth, NCI panel, 48 h
[1] = test system: MCF7 breast
[2] = test system: SK-MEL-28 melanoma
[3] = test system: OVCAR-8 ovarian
[4] = test system: HT29 colon
[5] = test system: SF-268 CNS
[6] = test system: IGROV1 ovarian
[7] = test system: SF-295 CNS
[8] = test system: PC-3 prostate
[9] = test system: OVCAR-3 ovarian
[10] = test system: HOP-92 NSCLC
[11] = test system: KM12 colon
[12] = test system: MDA-MB-231 breast
[13] = test system: A549 NSCLC
[14] = test system: DU-145 prostate
[15] = test system: SF-539 CNS
[16] = test system: SK-OV-3 ovarian
[17] = test system: NCI-H460 lung
[18] = test system: HL-60(TB) leukemia
[19] = test system: SN12C renal
[20] = test system: K-562 leukemia

Row | Compound | TGI [1] | TGI [2] | TGI [3] | TGI [4] | TGI [5] | TGI [6] | TGI [7] | TGI [8] | TGI [9] | TGI [10] | TGI [11] | TGI [12] | TGI [13] | TGI [14] | TGI [15] | TGI [16] | TGI [17] | TGI [18] | TGI [19] | TGI [20]
1 | CN(CCNC(=O)c1cc(-c2ccccc2)nc2ccccc12)CCNC(=O)c1cc(-c2ccccc2)nc2ccccc12 | 42 µM | 5.29 µM | > 100 µM | 4.74 µM | > 100 µM | > 100 µM | 90.5 µM | > 100 µM | > 100 µM | 14.7 µM | > 40.5 µM | > 100 µM | > 100 µM | > 95.5 µM | 21.3 µM | > 100 µM | > 100 µM | 24.9 µM | > 100 µM | > 36.7 µM
2 | Cc1c(C)c(C)c(CSC(=N)N)c(C)c1C | 30.9 µM | 28.8 µM | 58.2 µM | 25.6 µM | 36.2 µM | > 100 µM | 21.7 µM | 24.6 µM | 32.1 µM | 30.9 µM | 39.3 µM | 27.1 µM | 30.9 µM | 31.6 µM | 29.1 µM | 34.2 µM | 26.8 µM | 27.6 µM | 32.3 µM | 30.2 µM
3 | COc1cc(CNC(=O)CCCCCCCCCCSSCCCCCCCCCCC(=O)NCc2ccc(O)c(OC)c2)ccc1O | > 10 µM | > 10 µM | > 10 µM | > 10 µM | > 10 µM | > 10 µM | > 10 µM | > 10 µM | > 10 µM | > 10 µM | > 10 µM | > 10 µM | > 10 µM | > 10 µM | > 10 µM | > 10 µM | > 10 µM | > 10 µM | > 10 µM | > 10 µM
4 | COc1cc(C2c3cc4c(cc3OC(O)C2C)OCO4)cc(OC)c1O (stereo not given) | > 100 µM | > 91.6 µM | > 100 µM | > 63.3 µM | > 100 µM | > 100 µM | 33.9 µM | > 100 µM | 27.4 µM | > 94.3 µM | > 100 µM | 89.3 µM | > 100 µM | > 100 µM | 30.6 µM | 55.7 µM | > 70.5 µM | 20.2 µM | > 75.3 µM | > 100 µM
5 | Cc1ccc2nc(Cl)c(/C=N/N3C(=O)/C(=C/Cc4ccco4)N=C3c3ccccc3)cc2c1 | > 93.9 µM | > 100 µM | > 68.2 µM | > 79.4 µM | 70.6 µM | 53.9 µM | > 100 µM | > 100 µM | > 100 µM | 66.5 µM | > 93.6 µM | > 100 µM | > 93.5 µM | > 79.5 µM | 88.4 µM | > 100 µM | 75.9 µM | 55.9 µM | > 69.6 µM | > 100 µM
6 | Cc1nn(C(=O)c2ccncc2)c2c1C(c1ccccc1O)SC(N)=N2 (stereo not given) | > 10 µM | > 10 µM | > 10 µM | > 10 µM | > 10 µM | > 10 µM | > 10 µM | > 10 µM | > 10 µM | > 10 µM | > 10 µM | > 10 µM | > 10 µM | > 10 µM | > 10 µM | > 10 µM | > 10 µM | > 10 µM | > 10 µM | > 10 µM
